Values of other authors in the PKSmart pharmacokinetics tables (Seal et al. 2025).

Assay: Lombardo, Berellini, Obach 2018, Drug Metab Dispos 46:1466, doi 10.1124/dmd.118.082966
Details: human; for MRT / Vd / clearance / half-life: in vivo, iv; for fraction unbound: plasma

In the case of `C[C@@H]1[C@H](O)[C@@H](C)C=CC=CC=CC=CC=CC=CC=C[C@H](O[C@H]2O[C@H](C)[C@@H](O)[C@H](N)[C@@H]2O)C[C@@H]2O[C@@](O)(C[C@@H](O)C[C@@H](O)[C@H](O)CC[C@@H](O)C[C@@H](O)CC(=O)O[C@H]1C)C[C@H](O)C2C(=O)O` (some centres not stated), the MRT is given as 61 h, the Vd is given as 0.62 L/kg and the clearance is given as 0.17 mL/min/kg. For the same compound, the half-life was 40 h and the fraction unbound was 0.03.
For `Nc1ccn([C@@H]2C=C(CO)[C@@H](O)[C@H]2O)c(=O)n1`, the clearance is listed as 3.61 mL/min/kg.
In the case of `C[C@H]1CN(CC(Cc2ccccc2)C(=O)NCC(=O)O)CC[C@@]1(C)c1cccc(O)c1` (some centres not stated), the MRT is given as 1.24 h, the Vd is given as 0.43 L/kg and the clearance is given as 5.84 mL/min/kg. For the same compound, the half-life was 5.3 h and the fraction unbound was 0.2.
For `CCn1cnc(C(=O)NC)c1C(=O)NC`, the MRT is listed as 1 h, the Vd is listed as 0.73 L/kg and the clearance is listed as 12.1 mL/min/kg. For the same compound, the half-life was 0.83 h and the fraction unbound was 0.92.
In the case of `CN/C(=C\[N+](=O)[O-])NCCSCc1csc(CN(C)C)n1`, the MRT is listed as 1.7 h, the Vd is listed as 1 L/kg and the clearance is listed as 9.8 mL/min/kg. For the same compound, the half-life was 1.5 h.
For `COc1nc(C(Cl)(Cl)Cl)c(Cl)c(OC)c1Cl`, the MRT is given as 5.1 h, the Vd is given as 9.1 L/kg and the clearance is given as 29.9 mL/min/kg. For the same compound, the half-life was 3.8 h.
For `Nc1nc2c(ncn2COC(CO)CO)c(=O)[nH]1`, the MRT is given as 3.7 h, the Vd is given as 1 L/kg and the clearance is given as 4.6 mL/min/kg. For the same compound, the half-life was 3.7 h.
For `CNCCC=C1c2ccccc2CCc2ccccc21`, the MRT is given as 37 h, the Vd is given as 22 L/kg and the clearance is given as 10 mL/min/kg. For the same compound, the half-life was 30 h.
In the case of `Cc1c(OCC(F)(F)F)ccnc1C[S+](O)c1nc2ccccc2[n-]1` (configuration not stated), the MRT is given as 1.1 h, the Vd is given as 0.28 L/kg and the clearance is given as 4.4 mL/min/kg. The half-life was 1 h.
In the case of `CCN(CC)CCNC(=O)c1cc(S(C)(=O)=O)ccc1OC`, the MRT is given as 3.8 h, the Vd is given as 1.1 L/kg and the clearance is given as 4.7 mL/min/kg. The half-life was 3.2 h.
In the case of `CC(=O)OC1=C2C(C)[C@@H](OC(=O)C(O)C(NC(=O)OC(C)(C)C)c3ccccc3)C[C@@](O)([C@@H](OC(=O)c3ccccc3)[C@@H]3[C@]4(OC(C)=O)CO[C@@H]4C[C@@H]4C[C@@]43C1=O)C2(C)C` (some centres not stated), the MRT is given as 26.1 h, the Vd is given as 17 L/kg and the clearance is given as 10.8 mL/min/kg. For the same compound, the half-life was 33.9 h.
In the case of `COC(=O)O[C@@]12CO[C@@H]1C[C@H](O)[C@@]1(C)C(=O)C(OC(C)=O)=C3C(C)[C@@H](OC(=O)C(O)C(NC(=O)c4ccccc4)c4ccccc4)C[C@@](O)([C@@H](OC(=O)c4ccccc4)[C@H]21)C3(C)C` (some centres not stated), the MRT is given as 13 h, the Vd is given as 6.9 L/kg and the clearance is given as 8.6 mL/min/kg. The half-life was 31 h.
In the case of `O=[N+]([O-])O[C@H]1CO[C@H]2[C@@H]1OC[C@H]2O`, the MRT is listed as 2.3 h, the Vd is listed as 0.86 L/kg and the clearance is listed as 6.2 mL/min/kg. The half-life was 1.9 h.
In the case of `CCOC(=O)Nc1ccc(NCc2ccc(F)cc2)nc1N`, the MRT is listed as 11 h, the Vd is listed as 1.1 L/kg and the clearance is listed as 1.6 mL/min/kg. The half-life was 8.5 h.
In the case of `O=C(CCCN1CCC(n2c(=O)[nH]c3ccccc32)CC1)c1ccc(F)cc1`, the MRT is given as 7.5 h, the Vd is given as 3.8 L/kg and the clearance is given as 8.3 mL/min/kg. For the same compound, the half-life was 5.8 h.
In the case of `CC(CCc1ccc2c(c1)OCO2)NCC(O)c1ccc(O)c(C(N)=O)c1` (configuration not stated), the MRT is given as 8.2 h, the Vd is given as 7.9 L/kg and the clearance is given as 16 mL/min/kg. The half-life was 11 h.
For `CC(C)(C)C(NC(=O)C(CC1CCCC1)CN(O)C=O)C(=O)N1CCN(Cc2ccc3c(c2)OCO3)CC1` (configuration not stated), the MRT is given as 5.9 h, the Vd is given as 1.1 L/kg and the clearance is given as 3.1 mL/min/kg. For the same compound, the half-life was 9.4 h and the fraction unbound was 0.2.
For `CCCc1c(OCCCS(=O)(=O)c2ccc(C(=O)CCC(=O)O)cc2)ccc(C(C)=O)c1O`, the clearance is given as 17.4 mL/min/kg and the half-life is given as 0.04 h.
For `Cc1ccc([C@@H]2O[C@H](CO)[C@@H](O)[C@H](O)[C@H]2O)cc1Cc1ccc(-c2ccc(F)cc2)s1`, the MRT is given as 7.25 h, the Vd is given as 1.19 L/kg and the clearance is given as 2.74 mL/min/kg. The half-life was 10.3 h and the fraction unbound was 0.01.
For `C[C@@]1(Cn2ccnn2)C(C(=O)O)N2C(=O)C[C@H]2S1(=O)=O` (some centres not stated), the MRT is given as 0.89 h, the Vd is given as 0.26 L/kg and the clearance is given as 4.81 mL/min/kg. The half-life was 0.97 h and the fraction unbound was 0.7.
For `COc1ccccc1OCCNCC(O)COc1cccc2[nH]c3ccccc3c12` (configuration not stated), the MRT is given as 2.8 h, the Vd is given as 1.3 L/kg and the clearance is given as 7.8 mL/min/kg. For the same compound, the half-life was 2.4 h.
In the case of `N[C@@]1(C(=O)O)CS(=O)(=O)[C@H]2C(C(=O)O)[C@H]21` (some centres not stated), the MRT is given as 1.44 h, the Vd is given as 0.21 L/kg and the clearance is given as 2.4 mL/min/kg. For the same compound, the half-life was 1.23 h.
For `CN(C)CCCNC(=O)/C(=C/CCCCC(O)=NO)COc1cccc2ccccc12`, the MRT is listed as 4.1 h, the Vd is listed as 0.45 L/kg and the clearance is listed as 1.82 mL/min/kg. The half-life was 2.1 h.
For `C[C@H](CCC(=O)O)[C@H]1CC[C@H]2[C@@H]3[C@H](O)C[C@@H]4C[C@H](O)CC[C@]4(C)[C@H]3CC[C@]12C`, the MRT is given as 0.57 h, the Vd is given as 0.19 L/kg and the clearance is given as 5.7 mL/min/kg. For the same compound, the half-life was 1.42 h.
In the case of `CC(=O)O[C@H]1C[C@@H]2CC[C@@H]3[C@H](CC[C@@]4(C)[C@H]3C[C@H]([N+]3(C)CCCCC3)[C@@H]4OC(C)=O)[C@@]2(C)C[C@@H]1N1CCCCC1`, the MRT is given as 1.1 h, the Vd is given as 0.3 L/kg and the clearance is given as 4.5 mL/min/kg. For the same compound, the half-life was 1.4 h and the fraction unbound was 0.25.
